Experiments:
[1] = system: Puccinia recondita f. sp. tritici; experiment: Fungicidal activity against Puccinia recondita f. sp. tritici / wheat / leaf disc preventative (brown rust); format: in vivo; details: foliar, 200 ppm in the applied formulation, wheat leaf segments cv. Kanzler, inoculated 1 day after application, assessed 7 to 9 days after application, compared to untreated, read-out: disease control
Protocol: Leaf disks or leaf segments of various plant species are cut from plants grown in a greenhouse. The cut leaf disks or segments are placed in multiwell plates (24-well format) onto water agar. The leaf disks are sprayed with a test solution before (preventative) or after (curative) inoculation. Compounds to be tested are prepared as DMSO solutions (max. 10 mg/mL) which are diluted to the appropriate concentration with 0.025% Tween20 just before spraying. The inoculated leaf disks or segments are incubated under defined conditions (temperature, relative humidity, light, etc.) according to the respective test system. A single evaluation of disease level is carried out 3 to 14 days after inoculation, depending on the pathosystem. Percent disease control relative to the untreated check leaf disks or segments is then calculated. Wheat leaf segments cv. Kanzler were placed on agar in multiwell plates (24-well format) and sprayed with the formulated test compound diluted in water. The leaf disks were inoculated with a spore suspension of the fungus 1 day after application. The inoculated leaf segments were incubated at 19° C. and 75% relative humidity (rh) under a light regime of 12 hours light/12 hours darkness in a climate cabinet and the activity of a compound was assessed as percent disease control compared to untreated when an appropriate level of disease damage appears in untreated check leaf segments (7 to 9 days after application). The following compounds at 200 ppm in the applied formulation give at least 80% disease control in this test when compared to untreated control leaf disks under the same conditions, which show extensive disease development.

[2] = system: Puccinia recondita f. sp. tritici; experiment: Fungicidal activity against Puccinia recondita f. sp. tritici / wheat / leaf disc curative (brown rust); format: in vivo; details: foliar, 200 ppm in the applied formulation, wheat leaf segments cv. Kanzler, applied 1 day after inoculation, assessed 6 to 8 days after application, compared to untreated, read-out: disease control
Protocol: Leaf disks or leaf segments of various plant species are cut from plants grown in a greenhouse. The cut leaf disks or segments are placed in multiwell plates (24-well format) onto water agar. The leaf disks are sprayed with a test solution before (preventative) or after (curative) inoculation. Compounds to be tested are prepared as DMSO solutions (max. 10 mg/mL) which are diluted to the appropriate concentration with 0.025% Tween20 just before spraying. The inoculated leaf disks or segments are incubated under defined conditions (temperature, relative humidity, light, etc.) according to the respective test system. A single evaluation of disease level is carried out 3 to 14 days after inoculation, depending on the pathosystem. Percent disease control relative to the untreated check leaf disks or segments is then calculated. Wheat leaf segments cv. Kanzler are placed on agar in multiwell plates (24-well format). The leaf segments are then inoculated with a spore suspension of the fungus. Plates were stored in darkness at 19° C. and 75% relative humidity. The formulated test compound diluted in water was applied 1 day after inoculation. The leaf segments were incubated at 19° C. and 75% relative humidity under a light regime of 12 hours light/12 hours darkness in a climate cabinet and the activity of a compound was assessed as percent disease control compared to untreated when an appropriate level of disease damage appears in untreated check leaf segments (6 to 8 days after application). The following compounds at 200 ppm in the applied formulation give at least 80% disease control in this test when compared to untreated control leaf disks under the same conditions, which show extensive disease development.

[3] = system: Phakopsora pachyrhizi; experiment: Fungicidal activity against Phakopsora pachyrhizi / soybean / leaf disc preventative (Asian soybean rust); format: in vivo; details: foliar, 200 ppm in the applied formulation, soybean leaf disks, inoculated one day after application, assessed 12 to 14 days after application, compared to untreated, read-out: disease control
Protocol: Leaf disks or leaf segments of various plant species are cut from plants grown in a greenhouse. The cut leaf disks or segments are placed in multiwell plates (24-well format) onto water agar. The leaf disks are sprayed with a test solution before (preventative) or after (curative) inoculation. Compounds to be tested are prepared as DMSO solutions (max. 10 mg/mL) which are diluted to the appropriate concentration with 0.025% Tween20 just before spraying. The inoculated leaf disks or segments are incubated under defined conditions (temperature, relative humidity, light, etc.) according to the respective test system. A single evaluation of disease level is carried out 3 to 14 days after inoculation, depending on the pathosystem. Percent disease control relative to the untreated check leaf disks or segments is then calculated. Soybean leaf disks are placed on water agar in multiwell plates (24-well format) and sprayed with the formulated test compound diluted in water. One day after application leaf discs are inoculated by spraying a spore suspension on the lower leaf surface. After an incubation period in a climate cabinet of 24-36 hours in darkness at 20° C. and 75% rh leaf disc are kept at 20° C. with 12 hours light/day and 75% rh. The activity of a compound is assessed as percent disease control compared to untreated when an appropriate level of disease damage appears in untreated check leaf disks (12 to 14 days after application). The following compounds at 200 ppm in the applied formulation give at least 80% disease control in this test when compared to untreated control leaf disks under the same conditions, which show extensive disease development.

[4] = system: Glomerella lagenarium (Colletotrichum lagenarium); experiment: Fungicidal activity against Glomerella lagenarium (Colletotrichum lagenarium) liquid culture / cucumber / preventative (anthracnose); format: cell-based; details: Colletotrichum orbiculare; 20 ppm in the applied formulation; liquid culture in PDB, 24° C.; 3 to 4 days after application; compared to untreated control; read-out: disease control (inhibition of growth measured photometrically)
Protocol: Mycelia fragments or conidia suspensions of a fungus prepared either freshly from liquid cultures of the fungus or from cryogenic storage, are directly mixed into nutrient broth. DMSO solutions of the test compound (max. 10 mg/mL) are diluted with 0.025% Tween20 by a factor of 50 and 10 μL of this solution is pipetted into a microtiter plate (96-well format). The nutrient broth containing the fungal spores/mycelia fragments is then added to give an end concentration of the tested compound. The test plates are incubated in the dark at 24° C. and 96% relative humidity (rh). The inhibition of fungal growth is determined photometrically after 2 to 7 days, depending on the pathosystem, and percent antifungal activity relative to the untreated check is calculated. Conidia of the fungus from cryogenic storage are directly mixed into nutrient broth (PDB—potato dextrose broth). After placing a (DMSO) solution of test compound into a microtiter plate (96-well format), the nutrient broth containing the fungal spores is added. The test plates are incubated at 24° C. and the inhibition of growth is measured photometrically 3 to 4 days after application. The following compounds at 20 ppm in the applied formulation give at least 80% disease control in this test when compared to untreated control under the same conditions, which show extensive disease development.

melting point: 135.5 to 140.3 °C
SMILES: COCC(=S)NCc1cnn(Cc2ccc(-c3noc(C(F)(F)F)n3)s2)c1 [Compound 1.14, 2-methoxy-N-[[1-[[5-[5-(trifluoromethyl)-1,2,4-oxadiazol-3-yl]-2-thienyl]methyl]pyrazol-4-yl]methyl]thioacetamide]
pest or weed control at 200 ppm [1]: ≥ 80% | pest or weed control at 200 ppm [2]: ≥ 80% | pest or weed control at 200 ppm [3]: ≥ 80% | inhibition at 20 ppm [4]: ≥ 80%

Source: US20210267204A1, “MICROBIOCIDAL OXADIAZOLE DERIVATIVES” (SYNGENTA CROP PROTECTION AG, priority 2018, published 2021)
